Reference: patent publication US12344600B2, “c-Myc mRNA translation modulators and uses thereof in the treatment of cancer” (Anima Biotech Inc., priority 2022, dated 2025)

Test system: c-Myc
Experiment: c-Myc immunofluorescence assay
Format: cell-based, human
Settings: A549 cells, 24 hours, anti-c-Myc immunofluorescence
Outline: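 Read-out is imaged c-Myc immunofluorescence, nucleus-segmented, in A549 lung carcinoma cells exposed to compound dose series for 24 h after 48 h growth. Fixation 4% paraformaldehyde, Triton permeabilization, antibody staining at room temperature; EC50 from logistic fit of signal versus concentration.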

How did the “Myc Efficacy (−LogEC50)” value turn out when `CNC(=O)N1CCN(c2nc(-c3ccc(OC)cc3)no2)CC1` [Compound 191, 4-(3-(4-methoxyphenyl)-1,2,4-oxadiazol-5-yl)-N-methylpiperazine-1-carboxamide] was run?
The value was “+ (+ >3 and <5)”.

Which “Myc Efficacy (−LogEC50)” value does the source give for `COc1ccc(-c2noc(N3CCC(C(=O)Nc4cccc(C)c4)CC3)n2)cc1` [Compound 211, 1-(3-(4-methoxyphenyl)-1,2,4-oxadiazol-5-yl)-N-(m-tolyl)piperidine-4-carboxamide] here?
The value was “+ (+ >3 and <5)”.

For `COc1ccccc1-c1noc(N2CCC(C(=O)NCc3cccnc3)CC2)n1` [Compound 179, 1-(3-(2-methoxyphenyl)-1,2,4-oxadiazol-5-yl)-N-(pyridin-3-ylmethyl)piperidine-4-carboxamide], which “Myc Efficacy (−LogEC50)” value is on record?
Its value is “+ (+ >3 and <5)”.

For `CN1CCC[C@H](CN2CCC(CNC(=O)C3CCN(c4nc(-c5ccc(Cl)cc5)no4)CC3)C2)C1` (stereo partly drawn) [Compound 468, 1-(3-(4-chlorophenyl)-1,2,4-oxadiazol-5-yl)-N-((1-(((S)-1-methylpiperidin-3-yl)methyl)pyrrolidin-3-yl)methyl)piperidine-4-carboxamide], which “Myc Efficacy (−LogEC50)” value is on record?
The value was “++ (++ ≥5 and <6)”.

For `COc1ccc(-c2noc(N3CCC(C(=O)NCCCN4CCC[C@H](C)C4)CC3)n2)cc1` [Compound 141, (S)-1-(3-(4-methoxyphenyl)-1,2,4-oxadiazol-5-yl)-N-(3-(3-methylpiperidin-1-yl)propyl)piperidine-4-carboxamide], which “Myc Efficacy (−LogEC50)” value is on record?
The value was “− (− ≤3)”.

With `CN1CCC[C@H](CN2CC[C@@H](CNC(=O)C3CCN(c4nc(-c5ccc(Cl)cc5)no4)CC3)C2)C1` (single isomer, unassigned) [Compound 470] as the compound, how does the “Myc Efficacy (−LogEC50)” value read?
Its value is “++ (++ ≥5 and <6)”.

With `COc1ccc(-c2noc(N3CCC(c4ccccc4)CC3)n2)cc1` [Compound 136, 3-(4-methoxyphenyl)-5-(4-phenylpiperidin-1-yl)-1,2,4-oxadiazole] as the compound, how does the “Myc Efficacy (−LogEC50)” value read?
Its value is “− (− ≤3)”.

With `N#Cc1ccc(-c2noc(N3CCC(C(=O)NCCCN4CCC(Cc5ccccc5)CC4)CC3)n2)cc1` [Compound 241, N-(3-(4-benzylpiperidin-1-yl)propyl)-1-(3-(4-cyanophenyl)-1,2,4-oxadiazol-5-yl)piperidine-4-carboxamide] as the compound, how does the “Myc Efficacy (−LogEC50)” value read?
The value was “+++ (+++ ≥6)”.

With `COc1ccc(-c2noc(N3CCC(C(=O)NCC4CCN(CC5CCCOC5)C4)CC3)n2)cc1` (centres unmarked) [Compound 375, 1-(3-(4-methoxyphenyl)-1,2,4-oxadiazol-5-yl)-N-((1-((tetrahydro-2H-pyran-3-yl)methyl)pyrrolidin-3-yl)methyl)piperidine-4-carboxamide] as the compound, how does the “Myc Efficacy (−LogEC50)” value read?
The value was “++ (++ ≥5 and <6)”.

With `COc1ccc(-c2noc(N3CCN(C(=O)N4CCS(=O)(=O)CC4)CC3)n2)cc1` [Compound 146, (1,1-dioxidothiomorpholino)(4-(3-(4-methoxyphenyl)-1,2,4-oxadiazol-5-yl)piperazin-1-yl)methanone] as the compound, how does the “Myc Efficacy (−LogEC50)” value read?
The value was “+ (+ >3 and <5)”.

Which “Myc Efficacy (−LogEC50)” value does the source give for `COc1ccc(-c2noc(N3CCC(C(=O)NCC4CCOC4)CC3)n2)cc1` (centres unmarked) [Compound 255, 1-(3-(4-methoxyphenyl)-1,2,4-oxadiazol-5-yl)-N-((tetrahydrofuran-3-yl)methyl)piperidine-4-carboxamide] here?
Its value is “+ (+ >3 and <5)”.

`COc1ccc(-c2noc(N3CCC(C(=O)NCC4CCN(Cc5cccc(C)n5)C4)CC3)n2)cc1` (centres unmarked) [Compound 387, 1-(3-(4-methoxyphenyl)-1,2,4-oxadiazol-5-yl)-N-((1-((6-methylpyridin-2-yl)methyl)pyrrolidin-3-yl)methyl)piperidine-4-carboxamide] was tested. Which “Myc Efficacy (−LogEC50)” value did it give?
Its value is “++ (++ ≥5 and <6)”.

How did the “Myc Efficacy (−LogEC50)” value turn out when `COc1ccc(-c2noc(N3CCC(C(=O)NCC4CCN(CC5CCCCO5)C4)CC3)n2)cc1` (centres unmarked) [Compound 361, 1-(3-(4-methoxyphenyl)-1,2,4-oxadiazol-5-yl)-N-((1-((tetrahydro-2H-pyran-2-yl)methyl)pyrrolidin-3-yl)methyl)piperidine-4-carboxamide] was run?
The value was “++ (++ ≥5 and <6)”.

Which “Myc Efficacy (−LogEC50)” value does the source give for `COc1ccc(-c2noc(N3CCC(C(=O)NCCCN4CCC[C@@H](C)C4)CC3)n2)cc1` [Compound 142, (R)-1-(3-(4-methoxyphenyl)-1,2,4-oxadiazol-5-yl)-N-(3-(3-methylpiperidin-1-yl)propyl)piperidine-4-carboxamide] here?
Its value is “+ (+ >3 and <5)”.

How did the “Myc Efficacy (−LogEC50)” value turn out when `COc1ccc(-c2noc(N3CCC(C(=O)NCC4CCN(CC5CC5)C4)CC3)n2)cc1` (centres unmarked) [Compound 220, N-((1-(cyclopropylmethyl)pyrrolidin-3-yl)methyl)-1-(3-(4-methoxyphenyl)-1,2,4-oxadiazol-5-yl)piperidine-4-carboxamide] was run?
Its value is “+ (+ >3 and <5)”.

`COc1ccc(-c2noc(N3CCC(C(=O)NC4COc5ccccc54)CC3)n2)cc1` (centres unmarked) [Compound 283, N-(2,3-dihydrobenzofuran-3-yl)-1-(3-(4-methoxyphenyl)-1,2,4-oxadiazol-5-yl)piperidine-4-carboxamide] was tested. Which “Myc Efficacy (−LogEC50)” value did it give?
Its value is “+ (+ >3 and <5)”.

Which “Myc Efficacy (−LogEC50)” value does the source give for `COc1ccc(-c2noc(N3CCC(C(=O)N[C@H]4CCN(Cc5ccccc5)C4)CC3)n2)cc1` [Compound 316, (S)-N-(1-benzylpyrrolidin-3-yl)-1-(3-(4-methoxyphenyl)-1,2,4-oxadiazol-5-yl)piperidine-4-carboxamide] here?
Its value is “+ (+ >3 and <5)”.

How did the “Myc Efficacy (−LogEC50)” value turn out when `COc1ccc(-c2noc(N3CCC(C(=O)NCc4ccccn4)CC3)n2)cc1` [Compound 115, 1-(3-(4-methoxyphenyl)-1,2,4-oxadiazol-5-yl)-N-(pyridin-2-ylmethyl)piperidine-4-carboxamide] was run?
The value was “− (− ≤3)”.

Which “Myc Efficacy (−LogEC50)” value does the source give for `COc1ccc(-c2noc(N3CCC(C(=O)NCC4CCN(C)CC4)CC3)n2)cc1` [Compound 217, 1-(3-(4-methoxyphenyl)-1,2,4-oxadiazol-5-yl)-N-((1-methylpiperidin-4-yl)methyl)piperidine-4-carboxamide] here?
The value was “− (− ≤3)”.

With `Cc1ccc(CN2CCC(CNC(=O)C3CCN(c4nc(-c5ccc(Cl)cc5)no4)CC3)C2)nc1` (centres unmarked) [Compound 243, 1-(3-(4-chlorophenyl)-1,2,4-oxadiazol-5-yl)-N-((1-((5-methylpyridin-2-yl)methyl)pyrrolidin-3-yl)methyl)piperidine-4-carboxamide] as the compound, how does the “Myc Efficacy (−LogEC50)” value read?
The value was “+++ (+++ ≥6)”.

Which “Myc Efficacy (−LogEC50)” value does the source give for `COc1ccc(-c2cccc(N3CCC(C(=O)NCC4CCN(Cc5ccc(C)cc5)C4)CC3)n2)cc1` (centres unmarked) [Compound 157, 1-(6-(4-methoxyphenyl)pyridin-2-yl)-N-((1-(4-methylbenzyl)pyrrolidin-3-yl)methyl)piperidine-4-carboxamide] here?
Its value is “++ (++ ≥5 and <6)”.

Which “Myc Efficacy (−LogEC50)” value does the source give for `COc1ccc(-c2noc(N3CCC(C(=O)NCC4CCN(Cc5ccco5)C4)CC3)n2)cc1` (centres unmarked) [Compound 320, N-((1-(furan-2-ylmethyl)pyrrolidin-3-yl)methyl)-1-(3-(4-methoxyphenyl)-1,2,4-oxadiazol-5-yl)piperidine-4-carboxamide] here?
Its value is “+ (+ >3 and <5)”.

`COc1ccc(-c2noc(N3CCC(C(=O)NCC4CCN(Cc5cnccc5C)C4)CC3)n2)cc1` (centres unmarked) [Compound 329, 1-(3-(4-methoxyphenyl)-1,2,4-oxadiazol-5-yl)-N-((1-((4-methylpyridin-3-yl)methyl)pyrrolidin-3-yl)methyl)piperidine-4-carboxamide] was tested. Which “Myc Efficacy (−LogEC50)” value did it give?
Its value is “+ (+ >3 and <5)”.
